Reference: paper PMC8270270, “Rosin Derivatives as a Platform for the Antiviral Drug Design” (Molecules, 2021)
Converted amounts (≈) assume the structure as drawn.

Experiments:
Candida tropicalis = assay: Disco-diffuse method, fungicidal activity; assay type: cell-based; conditions: Candida tropicalis, 48 h at 32 °C, read-out: The Zone of Growth Inhibition; for zone of inhibition at 1000 µg/mL: compound concentration 1 mg/mL; for zone of inhibition at 5000 µg/mL: compound concentration 5 mg/mL; for zone of inhibition at 10000 µg/mL: compound concentration 10 mg/mL; for zone of inhibition at 25000 µg/mL: compound concentration 25 mg/mL; for zone of inhibition at 50000 µg/mL: compound concentration 50 mg/mL
Procedure: (§1) The determination of compounds (I, IV, VI–XI) effect concerning microorganisms was carried out using test strains of Escherichia coli, Bacillus subtilis, and Candida tropicalis. They are not only natural inhabitants of natural biocenoses but also a part of human microbiocenosis. Used microorganisms of bacteria were selected as representatives of the Gram-positive and Gram-negative human microbiota. The antibacterial activity of compounds (I, IV, VI–XI) was studied by the disco-diffuse method. The strain culture was transferred sterile from the mown agar into test tubes with 5 mL of nutrient medium to obtain a “night culture” 12–15 h before the experiment. Beef-extract agar (BEA) was used as a nutrient medium for the development of bacterial cells, and Sabouraud’s medium was used for yeast. Bacterial cultures were incubated in a thermostat at 37 °C, and yeast cultures at 32 °C. The melted BEA was poured sterile into Petri dishes (diameter 90 mm) and evenly distributed over the bottom of the dish, covered with a lid, and left on the table until it solidified completely. Next, the dishes with BEA were inoculated with a “lawn” by introducing a strain culture (suspension titer −1–2 × 10^8 CFU/mL) in an amount of 500 µL and evenly distributing it with a sterile spatula. The dishes were left for 60–90 min to dry the culture. Compounds (I, IV, VI–XI) were previously dissolved, and the sequential dilutions were applied to disks. Dimethyl sulfoxide (DMSO) was used as a solvent for the DAA. Water was used as a solvent for their potassium salts. […] This disk was impregnated with a solution of the test compound amounting to 100 μL and incubated in the dark for 24 h at 37 °C (Escherichia coli and Bacillus subtilis) and 48 h at 32 °C (Candida tropicalis). The solution diffuses, forming a concentration gradient of the test compound around the disc. After the incubation period, the inhibition zone or stimulation of microbial growth around the disk was measured in the experimental and control samples. A conclusion was made about the degree (bactericidal) toxicity of compounds. Solvent-treated disks (DMSO) were used as controls. The experiments were performed three times.

Bacillus subtilis = assay: Disco-diffuse method, antibacterial activity; assay type: cell-based; conditions: Bacillus subtilis; for zone of inhibition at 1000 µg/mL: compound concentration 1 mg/mL; for zone of inhibition at 1000 µg/mL / zone of inhibition at 5000 µg/mL / zone of inhibition at 10000 µg/mL / zone of inhibition at 25000 µg/mL / zone of inhibition at 50000 µg/mL: 24 h at 37 °C, read-out: The Zone of Growth Inhibition; for zone of inhibition at 5000 µg/mL: compound concentration 5 mg/mL; for zone of inhibition at 10000 µg/mL: compound concentration 10 mg/mL; for zone of inhibition at 25000 µg/mL: compound concentration 25 mg/mL; for zone of inhibition at 50000 µg/mL: compound concentration 50 mg/mL; for MIC: from disc diffusion, 1-50 mg/mL, read-out: minimum inhibitory concentration
Procedure: as §1

Escherichia coli = assay: Disco-diffuse method, antibacterial activity; assay type: cell-based; conditions: Escherichia coli; for zone of inhibition at 1000 µg/mL: compound concentration 1 mg/mL; for zone of inhibition at 1000 µg/mL / zone of inhibition at 5000 µg/mL / zone of inhibition at 10000 µg/mL / zone of inhibition at 25000 µg/mL / zone of inhibition at 50000 µg/mL: 24 h at 37 °C, read-out: The Zone of Growth Inhibition; for zone of inhibition at 5000 µg/mL: compound concentration 5 mg/mL; for zone of inhibition at 10000 µg/mL: compound concentration 10 mg/mL; for zone of inhibition at 25000 µg/mL: compound concentration 25 mg/mL; for zone of inhibition at 50000 µg/mL: compound concentration 50 mg/mL; for MIC: from disc diffusion, 1-50 mg/mL, read-out: minimum inhibitory concentration
Procedure: as §1

A549 cell culture = assay: Cytotoxicity, colorimetric MTT assay; assay type: cell-based, human; conditions: for Cytotoxicity (in words): A549, MTT assay; for IC50: Homo sapiens, A549, 24 h, read-out: Determined IC50; for Decrease in viable cells: at the working concentrations used to assess antiviral activity
Procedure: The cytotoxicity of compounds (I–V) was assessed on A549 cell culture using a colorimetric MTT assay. A549 cells were incubated for 24 h at 37 °C, 5% CO2 with solutions of the studied compounds at various concentrations. Next, the cell monolayer was washed, and MTT solution was added in a volume of 0.1 mL at a concentration of […]. After 1 h of MTT contact with the cells, the wells were washed, and the formed formazan crystals were dissolved in 0.1 mL of DMSO. The results were recorded at 560 nm on a CLARIOstar Plus plate photometer (BMG LABTECH, Ortenberg, Germany). The IC50 was calculated using GraphPad Prism 6.0.

[1] = system: A/California/07/09 ((A)H1N1pdm09) viral strain; assay type: cell-based, influenza virus
[2] = A549, therapeutic scheme, 24 h after stimulation, working concentration

SMILES	zone of inhibition at 1000 µg/mL (Candida tropicalis) [mm]	zone of inhibition at 5000 µg/mL (Candida tropicalis) [mm]	zone of inhibition at 10000 µg/mL (Candida tropicalis) [mm]	zone of inhibition at 25000 µg/mL (Candida tropicalis) [mm]	zone of inhibition at 50000 µg/mL (Candida tropicalis) [mm]	zone of inhibition at 1000 µg/mL (Bacillus subtilis) [mm]	zone of inhibition at 5000 µg/mL (Bacillus subtilis) [mm]	zone of inhibition at 10000 µg/mL (Bacillus subtilis) [mm]	zone of inhibition at 25000 µg/mL (Bacillus subtilis) [mm]	zone of inhibition at 50000 µg/mL (Bacillus subtilis) [mm]	MIC (Bacillus subtilis) [µg/mL]	zone of inhibition at 1000 µg/mL (Escherichia coli) [mm]	zone of inhibition at 5000 µg/mL (Escherichia coli) [mm]	zone of inhibition at 10000 µg/mL (Escherichia coli) [mm]	zone of inhibition at 25000 µg/mL (Escherichia coli) [mm]	zone of inhibition at 50000 µg/mL (Escherichia coli) [mm]	MIC (Escherichia coli) [µg/mL]	Cytotoxicity (in words) (A549 cell culture)	IC50 (A549 cell culture) [µg/mL]	Decrease in viable cells (A549 cell culture) [%]	also measured
CC(C)C1=CC2=CC[C@@H]3[C@](C)(CCC[C@@]3(C)C(=O)O)[C@H]2CC1 [IX, Abietic acid]	0	0	0	1 ± 0.11	1 ± 0.15	1 ± 0.15	2.1 ± 0.03	2 ± 0.05	4 ± 0.1	5 ± 1.04	1000 (≈ 3.31 mM)	0	1 ± 0.1	1 ± 0.1	2 ± 0.24	3 ± 0.14	5000 (≈ 16.5 mM)				
CC(C)C1=CC2=CCC3C(C)(C(=O)[O-])CCCC3(C)C2CC1.[K+] (centres unmarked) [II, Potassium abietate]																		highest cytotoxicity	240	50	Dose-dependent antiviral effect [1]: led to a decrease in the antiviral effect; Content of viral protein NP inside the cells (ELISA) [1, 2]: decrease in the content of the viral protein NP inside the cells; Viral load in supernatants obtained from cells (NP ELISA), vs control [1, 2]: slight decrease in the viral load
CC(C)C1=CC2=CCC3C(C)(CO)CCCC3(C)C2CC1 (centres unmarked) [XI, Abietinol]	0	1 ± 0.1	2 ± 0.1	4 ± 0.25	4.2 ± 0.15	1 ± 0.15	2.2 ± 0.05	2 ± 0.15	4 ± 0.12	4 ± 0.09	1000 (≈ 3.47 mM)	0	1 ± 0.1	1 ± 0.1	3.5 ± 0.21	5 ± 0.14	5000 (≈ 17.3 mM)				
CC(C)c1cc2c(cc1Br)C1(C)CCCC(C)(C(=O)[O-])C1CC2.[K+] (centres unmarked) [III, Potassium 12-bromodehydroabietate]																		highest cytotoxicity	140	50	Content of viral protein NP inside the cells (ELISA) [1, 2]: decrease in the content of the viral protein NP inside the cells
